Like-named read-outs stand apart in the source and are kept apart here.
Experiments:
[1] = Suvorexant pharmacokinetics across both trials; assay type: in vivo; conditions: human, plasma, oral
[2] = Study P008: adverse events; assay type: in vivo, human; conditions: for AE: Abnormal dreams / AE: Diarrhea / AE: Headache / AE: Nausea / AE: Somnolence / AE: Vessel puncture site hematoma / ECI: Euphoric mood / ECI: Hypnagogic hallucination / ECI: Hypnopompic hallucination / ECI: Sleep paralysis / Subjects with ≥ 1 AE: N = 10
[3] = assay type: in vivo, human
[4] = in vivo; cited from earlier work
[5] = assay type: in vivo, human; remark: listed apart in the source
[6] = Study P038 rifampin sub-study: adverse events; assay type: in vivo, human; conditions: for AE: Abnormal dreams / AE: Diarrhea / AE: Headache / AE: Nausea / AE: Somnolence / AE: Vessel puncture site hematoma / ECI: Euphoric mood / ECI: Hypnagogic hallucination / ECI: Hypnopompic hallucination / ECI: Sleep paralysis / Subjects with ≥ 1 AE: Study P038 rifampin sub-study, N = 10
[7] = Safety assessments across both studies; assay type: in vivo, human
[8] = Study P038 diltiazem sub-study: adverse events; assay type: in vivo, human; conditions: for AE: Abnormal dreams / AE: Diarrhea / AE: Headache / AE: Nausea / AE: Somnolence / AE: Vessel puncture site hematoma / ECI: Euphoric mood / ECI: Hypnagogic hallucination / ECI: Hypnopompic hallucination / ECI: Sleep paralysis / Subjects with ≥ 1 AE: Study P038 diltiazem sub-study, N = 20
[9] = assay type: in vivo, human; remark: listed apart in the source
[10] = suvorexant 40 mg alone, listed as suvorexant
[11] = suvorexant 20 mg + diltiazem, listed as suvorexant

Cc1ccc(-n2nccn2)c(C(=O)N2CCN(c3nc4cc(Cl)ccc4o3)CC[C@H]2C)c1 [Suvorexant, suvorexant]
Tmax [1]: 1 to 2 h
half-life ([1]; 40 mg): 11.2 to 12.9 h
AE: Abnormal dreams ([2]; suvorexant 4 mg + ketoconazole): 0 (0) n (%)
AE: Diarrhea ([2]; suvorexant 4 mg + ketoconazole): 0 (0) n (%)
AE: Headache ([2]; suvorexant 4 mg + ketoconazole): 1 (10) n (%)
AE: Nausea ([2]; suvorexant 4 mg + ketoconazole): 0 (0) n (%)
AE: Somnolence ([2]; suvorexant 4 mg + ketoconazole): 7 (70) n (%)
AE: Vessel puncture site hematoma ([2]; suvorexant 4 mg + ketoconazole): 0 (0) n (%)
ECI: Euphoric mood ([2]; suvorexant 4 mg + ketoconazole): 0 (0) n (%)
ECI: Hypnagogic hallucination ([2]; suvorexant 4 mg + ketoconazole): 0 (0) n (%)
ECI: Hypnopompic hallucination ([2]; suvorexant 4 mg + ketoconazole): 0 (0) n (%)
ECI: Sleep paralysis ([2]; suvorexant 4 mg + ketoconazole): 0 (0) n (%)
Subjects with ≥ 1 AE ([2]; suvorexant 4 mg + ketoconazole): 7 (70) n (%)
AEs considered events of clinical interest (ECIs) ([2]; suvorexant 4 mg alone or with ketoconazole): no AEs were considered to be ECIs
AE: Abnormal dreams ([2]; suvorexant 4 mg alone): 0 (0) n (%)
AE: Diarrhea ([2]; suvorexant 4 mg alone): 0 (0) n (%)
AE: Headache ([2]; suvorexant 4 mg alone): 0 (0) n (%)
AE: Nausea ([2]; suvorexant 4 mg alone): 0 (0) n (%)
AE: Somnolence ([2]; suvorexant 4 mg alone): 6 (60) n (%)
AE: Vessel puncture site hematoma ([2]; suvorexant 4 mg alone): 0 (0) n (%)
ECI: Euphoric mood ([2]; suvorexant 4 mg alone): 0 (0) n (%)
ECI: Hypnagogic hallucination ([2]; suvorexant 4 mg alone): 0 (0) n (%)
ECI: Hypnopompic hallucination ([2]; suvorexant 4 mg alone): 0 (0) n (%)
ECI: Sleep paralysis ([2]; suvorexant 4 mg alone): 0 (0) n (%)
Subjects with ≥ 1 AE ([2]; suvorexant 4 mg alone): 6 (60) n (%)
Decrease in suvorexant Cmax on co-administration with rifampin ([3]; Study P038, suvorexant 40 mg, rifampin 600 mg once daily): 64%
AUC(0-inf) ([3]; human, plasma, po, 40 mg): 13.6 µM·h
Cmax ([3]; human, plasma, po, 40 mg): 850 nM
Tmax ([3]; human, plasma, po, 40 mg): 2 h
half-life ([3]; human, plasma, po, 40 mg): 12.9 h
Effect on psychomotor performance [4]: no clinically meaningful effect on psycho-motor performance
Reaction time (choice reaction time and simple reaction time) [4]: statistically significant prolongation in reaction time
Prolongation (increase) in t½ on co-administration with diltiazem ([5]; Study P038 diltiazem sub-study, suvorexant 20 mg, diltiazem 240 mg once daily): 3.7 h
AUC(0-inf) ([5]; human, plasma, po, 20 mg): 7.88 µM·h
Cmax ([5]; human, plasma, po, 20 mg): 620 nM
Tmax ([5]; human, plasma, po, 20 mg): 1.5 h
half-life ([5]; human, plasma, po, 20 mg): 12.4 h
AE: Abnormal dreams ([6]; suvorexant 40 mg + rifampin): 3 (30) n (%)
AE: Diarrhea ([6]; suvorexant 40 mg + rifampin): 0 (0) n (%)
AE: Headache ([6]; suvorexant 40 mg + rifampin): 2 (20) n (%)
AE: Nausea ([6]; suvorexant 40 mg + rifampin): 0 (0) n (%)
AE: Somnolence ([6]; suvorexant 40 mg + rifampin): 9 (90) n (%)
AE: Vessel puncture site hematoma ([6]; suvorexant 40 mg + rifampin): 0 (0) n (%)
ECI: Euphoric mood ([6]; suvorexant 40 mg + rifampin): 0 (0) n (%)
ECI: Hypnagogic hallucination ([6]; suvorexant 40 mg + rifampin): 0 (0) n (%)
ECI: Hypnopompic hallucination ([6]; suvorexant 40 mg + rifampin): 0 (0) n (%)
ECI: Sleep paralysis ([6]; suvorexant 40 mg + rifampin): 0 (0) n (%)
Subjects with ≥ 1 AE ([6]; suvorexant 40 mg + rifampin): 10 (100) n (%)
Subjects with ≥ 1 AE ([6]; suvorexant 40 mg + rifampin, listed as suvorexant): 10 (100%) n (%)
AE: Abnormal dreams ([6]; suvorexant 40 mg alone): 2 (20) n (%)
AE: Diarrhea ([6]; suvorexant 40 mg alone): 0 (0) n (%)
AE: Headache ([6]; suvorexant 40 mg alone): 1 (10) n (%)
AE: Nausea ([6]; suvorexant 40 mg alone): 0 (0) n (%)
AE: Somnolence ([6]; suvorexant 40 mg alone): 10 (100) n (%)
AE: Vessel puncture site hematoma ([6]; suvorexant 40 mg alone): 3 (30) n (%)
ECI: Euphoric mood ([6]; suvorexant 40 mg alone): 1 (10) n (%)
ECI: Hypnagogic hallucination ([6]; suvorexant 40 mg alone): 1 (10) n (%)
ECI: Hypnopompic hallucination ([6]; suvorexant 40 mg alone): 1 (10) n (%)
ECI: Sleep paralysis ([6]; suvorexant 40 mg alone): 1 (10) n (%)
Subjects with ≥ 1 AE ([6]; suvorexant 40 mg alone): 10 (100) n (%)
ECI: Euphoric mood [6, 10]: 1 n (%)
ECI: Hypnagogic hallucination [6, 10]: 1 n (%)
ECI: Hypnopompic hallucination [6, 10]: 1 n (%)
ECI: Sleep paralysis [6, 10]: 1 n (%)
Subjects with ≥ 1 AE [6, 10]: 10 (100%) n (%)
Duration of ECI hypnopompic hallucination ([6]; suvorexant 40 mg in the rifampin sub-study): 1 min
Changes in vital signs, laboratory safety tests, physical examination, or ECG monitoring ([7]; across both studies): no clinically meaningful changes
Intensity of AEs ([7]; both trials, the moderate AE was in the P038 diltiazem sub-study): All AEs were mild in intensity, except one moderate AE of headache
Serious AEs or deaths ([7]; either trial (P008, P038), suvorexant alone or with CYP3A inhibitor/inducer): no serious AEs or deaths
Tolerability of single suvorexant doses ([7]; healthy subjects, co-administered with/without a CYP3A inhibitor/inducer): generally well tolerated
AE: Abnormal dreams ([8]; suvorexant 20 mg + diltiazem): 1 (5) n (%)
AE: Diarrhea ([8]; suvorexant 20 mg + diltiazem): 0 (0) n (%)
AE: Headache ([8]; suvorexant 20 mg + diltiazem): 1 (5) n (%)
AE: Nausea ([8]; suvorexant 20 mg + diltiazem): 0 (0) n (%)
AE: Somnolence ([8]; suvorexant 20 mg + diltiazem): 17 (85) n (%)
AE: Vessel puncture site hematoma ([8]; suvorexant 20 mg + diltiazem): 1 (5) n (%)
ECI: Euphoric mood ([8]; suvorexant 20 mg + diltiazem): 1 (5) n (%)
ECI: Hypnagogic hallucination ([8]; suvorexant 20 mg + diltiazem): 0 (0) n (%)
ECI: Hypnopompic hallucination ([8]; suvorexant 20 mg + diltiazem): 0 (0) n (%)
ECI: Sleep paralysis ([8]; suvorexant 20 mg + diltiazem): 0 (0) n (%)
Subjects with ≥ 1 AE ([8]; suvorexant 20 mg + diltiazem): 18 (90) n (%)
ECI: Euphoric mood [8, 11]: 1 n (%)
Subjects with ≥ 1 AE [8, 11]: 18 (90%) n (%)
AE: Abnormal dreams ([8]; suvorexant 20 mg alone): 1 (5) n (%)
AE: Diarrhea ([8]; suvorexant 20 mg alone): 2 (10) n (%)
AE: Headache ([8]; suvorexant 20 mg alone): 0 (0) n (%)
AE: Nausea ([8]; suvorexant 20 mg alone): 2 (10) n (%)
AE: Somnolence ([8]; suvorexant 20 mg alone): 19 (95) n (%)
AE: Vessel puncture site hematoma ([8]; suvorexant 20 mg alone): 1 (5) n (%)
ECI: Euphoric mood ([8]; suvorexant 20 mg alone): 0 (0) n (%)
ECI: Hypnagogic hallucination ([8]; suvorexant 20 mg alone): 0 (0) n (%)
ECI: Hypnopompic hallucination ([8]; suvorexant 20 mg alone): 0 (0) n (%)
ECI: Sleep paralysis ([8]; suvorexant 20 mg alone): 0 (0) n (%)
Subjects with ≥ 1 AE ([8]; suvorexant 20 mg alone): 20 (100) n (%)
Subjects with ≥ 1 AE ([8]; suvorexant 20 mg alone, listed as suvorexant): 20 (100%) n (%)
Duration of ECI euphoric mood ([8]; suvorexant 20 mg plus diltiazem): 1 h
Prolongation (increase) in t½ on co-administration with ketoconazole ([9]; Study P008, suvorexant 4 mg, ketoconazole 400 mg once daily): 8.2 h
AUC(0-inf) ([9]; human, plasma, po, 4 mg): 2.61 µM·h
Cmax ([9]; human, plasma, po, 4 mg): 280 nM
Tmax ([9]; human, plasma, po, 4 mg): 1 h
half-life ([9]; human, plasma, po, 4 mg): 11.2 h

— paper PMC6929321 (Clinical drug investigation, 2019)
